Data taken from patent US5445942A, “Amplification assay for hydrolase enzymes” (London Biotechnology Limited, priority 1988, dated 1995).

Columns and labels:
D-amino acid oxidase = D-amino acid oxidase (Sus scrofa, UniProt P00371); settings: same concentration as D-alanine (35 mM), pH 8.0
Text: Use of apo-D-amino acid oxidase, whose holoenzyme has a pH optimum of 8.0-9.0, allows the above assay to be conducted in a single pot:
The above ingredients may be mixed beforehand and added directly too the alkaline phosphatase.

apoglucose oxidase = biological target: T1, apoglucose oxidase (Aspergillus niger, UniProt P13006); experiment: Binding of FAD / FADP by apoglucose oxidase (removal of FAD traces from FADP)
T1 construct: made in house
T1 sequence (P13006 17-605): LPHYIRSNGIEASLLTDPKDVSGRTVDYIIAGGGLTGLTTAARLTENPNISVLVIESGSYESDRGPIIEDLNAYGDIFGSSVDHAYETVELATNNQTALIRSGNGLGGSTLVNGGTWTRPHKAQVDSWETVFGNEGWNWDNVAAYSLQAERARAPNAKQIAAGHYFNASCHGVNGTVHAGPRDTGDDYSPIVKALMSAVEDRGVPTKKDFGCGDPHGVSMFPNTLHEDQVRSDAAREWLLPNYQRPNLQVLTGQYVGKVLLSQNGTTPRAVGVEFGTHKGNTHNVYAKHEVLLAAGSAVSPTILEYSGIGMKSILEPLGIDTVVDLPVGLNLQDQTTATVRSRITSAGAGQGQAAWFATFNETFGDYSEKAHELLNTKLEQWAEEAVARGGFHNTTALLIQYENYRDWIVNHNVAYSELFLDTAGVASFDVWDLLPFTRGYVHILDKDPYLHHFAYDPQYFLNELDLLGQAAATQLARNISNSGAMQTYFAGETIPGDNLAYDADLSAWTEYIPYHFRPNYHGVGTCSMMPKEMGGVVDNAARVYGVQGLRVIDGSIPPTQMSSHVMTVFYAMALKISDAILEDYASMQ
Procedure: Apoglucose oxidase (2.5 μM) was mixed with FADP (200 μM) at room temperature. After 30 min the mixture was ultrafiltered to yield a sample of FADP containing less than 0.002% FAD.

apoenzyme = experiment: Prosthetic-group activity of FADP and its interference with holoenzyme formation from apoenzyme and FAD; assay type: biochemical; settings: shelf-stable apoenzymes
Text: In a preferred embodiment, the prosthetogen is an FAD-phosphate (FADP) and the hydrolase is a phosphatase. This procedure has the great advantage that the prosthetic group, FAD, is formed directly by action of a phosphatase enzyme on the prosthetogen, FADP, without the necessity to add any ancillary converting enzymes.
Suitable apoenzymes include apo-D-aminoacid oxidase and apoglucose oxidase as mentioned above, as well as apo-L-aminoacid oxidase, apoxanthine oxidase and other apoenzymes which will be apparent to those skilled in the art. Apo-D-aminoacid oxidase is a preferred apoenzyme for many applications since it is very shelf-stable, and has kinetic characteristics that permits the technology to be used in a `single pot` format, with all components added as a single promix to analyte-linked alkaline phosphatase. Suitable substrates for it are D-alanine, D-methionine and D-proline. For maximising the sensitivity of the invention without incorporating tail-end cycling components (see below), the use of apoglucose oxidase is advantageous, although its use requires a two stage format in which the first stage, involving hydrolysis of FADP, is operated at pH 8.0 and the second detection stage at a lower pH.

alkaline phosphatase = experiment: Hydrolysis of FADP by alkaline phosphatase, product checked by anion exchange elution and apoglucose oxidase reconstitution; assay type: biochemical; settings: 10 mM Tris buffer pH 8.0, 1 mM MgCl2, 0.1 mM ZnCl2
Text: Crude 2'(3')-FADP was isolated by FPLC on a Mono Q HR 10/10 anion exchange column (Pharmacia) with a H2 O/1M ammonium formate (pH 6.5) gradient. The fractions eluting with 0.65-0.8M ammonium formate were pooled and freeze-dried. […] Traces of FAD could be removed by treatment with a suitable apoenzyme followed by ultrafiltration to remove the macromolecules.

D-amino acid oxidase, sequence (P00371 whole entry): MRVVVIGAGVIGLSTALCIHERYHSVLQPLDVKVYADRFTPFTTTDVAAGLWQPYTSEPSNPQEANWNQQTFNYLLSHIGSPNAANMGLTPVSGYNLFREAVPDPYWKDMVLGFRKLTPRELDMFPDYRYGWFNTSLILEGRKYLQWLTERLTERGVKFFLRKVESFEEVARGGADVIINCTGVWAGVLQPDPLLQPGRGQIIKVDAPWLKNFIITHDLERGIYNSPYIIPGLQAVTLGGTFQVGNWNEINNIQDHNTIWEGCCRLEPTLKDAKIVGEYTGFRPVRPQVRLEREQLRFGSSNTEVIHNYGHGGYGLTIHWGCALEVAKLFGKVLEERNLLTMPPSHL

Compound | rate of oxidation relative to D-alanine (D-amino acid oxidase) | binding by apoglucose oxidase (apoglucose oxidase) | activity per se as a prosthetic group (apoenzyme) | interference with formation of the holoenzyme from apoenzyme and FAD (apoenzyme) | hydrolysis by alkaline phosphatase (alkaline phosphatase)
CSCC[C@@H](N)C(=O)O [D-methionine] | 2.5 |  |  |  | 
Cc1cc2nc3c(=O)[nH]c(=O)nc-3n(C[C@H](O)[C@H](O)[C@H](O)COP(=O)(O)OP(=O)(O)OC[C@H]3O[C@@H](n4cnc5c(N)ncnc54)[C@H](O)[C@@H]3O)c2cc1C [FAD, flavin adenine dinucleotide, reference compound] |  | binds FAD tightly |  |  | 
FAD-2' (3')-Phosphate [FADP] |  | does not bind FADP | no significant activity per se as a prosthetic group | does not significantly interfere with the formation of the holoenzyme | acted upon by alkaline phosphatase to give a product that eluted in the same place as FAD and was able to reconstitute apoglucose oxidase
O=C(O)[C@H]1CCCN1 [D-proline] | 3.0 |  |  |  | 
